# Reference: patent US20210317102A1, “INHIBITORS OF INTEGRATED STRESS RESPONSE PATHWAY” (Praxis Biotech LLC, priority 2019, published 2021)
# What was measured:
# [1] = system: Chinese hamster ovary (CHO) cells; test: Protein synthesis assay (puromycin incorporation, western blot); assay type: cell-based; details: 2 hours, media alone = 100%; for activity at 1 µM: Cricetulus griseus, unstressed CHO cells (without Tg), 1 μM test compound, read-out: % Protein synthesis relative to untreated (1 μM test compound); for % Recovery of protein synthesis (1 μM test compound): stressed CHO cells, 300 nM Tg plus 1 μM test compound, Tg alone = 0%
# Experimental: Chinese hamster ovary (CHO) cells were maintained at 37° C. and 5% CO2 in Dulbecco's Modified Eagle's Media (DMEM) supplemented with 10% fetal bovine serum, 2 mM L-glutamine, 100 U/ml penicillin, and 100 μg/ml streptomycin. After reaching 80% of confluence, cells were detached and seeded on 6 well plates in complete media, allowed to recover overnight and treated for 2 hours with 1 μM of the test compound (to assess protein synthesis levels in unstressed condition), or for 2 hours with 300 nM Tg in the presence of 1 μM of the test compound (to assess the recovery of protein synthesis in a stressed condition). Cells with Tg alone were used as controls.
# After the 2 hours treatments, media were replaced by adding 10 μg/ml puromycin (Sigma Aldrich #P8833) in complete media for 30 min. Media were removed and cells were lysed with SDS-PAGE lysis buffer. Lysates were transferred to 1.5 ml tubes and sonicated for 3 min and total protein amount were quantified using BCA Protein Assay Kit (Pierce). Equal amount of protein (30 μg) was loaded on SDS-PAGE gels. Proteins were transferred onto […] PVDF membranes (BioRad) and probed with primary antibodies diluted in Tris-buffered saline supplemented with 0.1% Tween 20 (Merck #S6996184 505) and 3% bovine serum albumin (Rockland #BSA-50).
# Puromycin (12D10) (Merck #MABE343) and j-actin (Sigma Aldrich #A5441) antibodies were used as primary antibody. A HRP-conjugated secondary antibody (Rockland) was employed to detect immune-reactive bands using enhanced chemiluminescence (ECL Western Blotting Substrate, Pierce). Quantification of protein bands was done by densitometry using ImageJ software.
# Percent increase of protein synthesis in unstressed cells (without Tg treatment) in the presence of media alone or certain test compounds is shown in Table 3. The percentage levels were normalized to the media alone condition, which correspond to 100% protein synthesis.
# Percent recovery of protein synthesis in stressed cells (with Tg treatment) due to the test compounds at 1 μM is also shown in Table 3. The levels were normalized to the media alone and Tg alone conditions, which correspond to 100% and 0% respectively.
# [2] = system: ATF4 expression, HEK293T cells carrying the ATF4 luciferase reporter; test: ATF4 expression inhibition assay (ATF4 luciferase reporter); assay type: cell-based; details: Homo sapiens, HEK-293T, 100 nM thapsigargin, 3 hours
# Experimental: The ATF4 reporter was prepared by fusing the human full length 5′UTR of ATF4 (NCBI Accession No. BC022088.2) upstream of the firefly luciferase coding sequence lacking the initiator methionine. The fused sequence was cloned into pLenti-EFla-C-Myc-DDK-IRES-Puro cloning vector (Origen #PS100085) using standard methods. Virus production was carried out by using Lenti-X™ Packaging Single Shots Protocol (Clonetech #631276). Viral particles were used to transduce HEK293T cells (ATCC #CRL-3216, ATCC Manassas, Va.), which were subsequently selected with puromycin to generate stable cell line. Cells were maintained at 37° C. and 5% CO2 in DMEM-F12 (Hyclone #SH30023.02) supplemented with 10% heat-inactivated fetal bovine serum (Gibco #16000-044), 2 mM L-glutamine (Gibco #25030-081), 100 U/ml penicillin, and 100 μg/ml streptomycin (Gibco #^15140-122).
# HEK293T cells carrying the ATF4 luciferase reporter were plated on 96-well plates (Nunc) at 10,000 cells per well. Cells were treated two days after seeding with 100 nM thapsigargin (Tg) (Sigma-Aldrich #T9033) in the presence of different concentrations of selected compounds ranging from 1 nM to 10 μM. Cells without treatment or cells treated with Tg alone were used as controls. Assay plates containing cells were incubated for 3 hours at 37° C.
# Luciferase reactions were performed using Luciferase Assay System (Promega #E1501) as specified by the manufacturer. Luminescence was read with an integration time of 1 s and a gain of 110 using a Cytation-5 multi-mode microplate reader (BioTek). Relative luminescence units were normalized to Tg treatment (0% inhibition) and untreated cells (100% inhibition) and the percentage of ATF4 inhibition was calculated.
# Accordingly, inhibition of ATF4 expression as a result of the test compound indicates suppression of the ISR pathway.
Structure (SMILES),activity at 1 µM [1],% Recovery of protein synthesis (1 μM test compound) [1],IC50 [2]
"O=C(COc1ccc(Cl)c(F)c1)N[C@H]1CC[C@H](CNC(=O)c2cccc(Cl)c2)CC1 [Compound 22, trans-3-chloro-N-((4-(2-(4-chloro-3-fluorophenoxy)acetamido)cyclohexyl)methyl)benzamide]",83.3%,54.6%,10.9 nM
"O=C(COc1ccc(Cl)c(F)c1)N[C@H]1CC[C@H](CNC(=O)c2ccc(Cl)c(F)c2)CC1 [Compound 23, trans-4-chloro-N-((4-(2-(4-chloro-3-fluorophenoxy)acetamido)cyclohexyl)methyl)-3-fluorobenzamide]",93%,74.1%,1.27 nM
"O=C(COc1ccc(Cl)c(F)c1)N[C@H]1CC[C@H](CNC(=O)c2ccc3ccc(Cl)cc3n2)CC1 [Compound 24, trans-7-chloro-N-((4-(2-(4-chloro-3-fluorophenoxy)acetamido)cyclohexyl)methyl)quinoline-2-carboxamide]",138%,49.1%,> 1000 nM
"O=C(N[C@H]1CC[C@H](CNC(=O)c2cc3cc(Cl)ccc3o2)CC1)c1ccc2cc(Cl)ccc2n1 [Compound 25, trans-6-chloro-N-(4-((5-chlorobenzofuran-2-carboxamido)methyl)cyclohexyl)quinoline-2-carboxamide]",266%,223.3%,1.56 nM
"O=C(NC[C@H]1CC[C@H](NC(=O)c2cc3cc(Cl)ccc3o2)CC1)c1cc2cc(Cl)ccc2o1 [Compound 26, trans-5-chloro-N-((4-(5-chlorobenzofuran-2-carboxamido)cyclohexyl)methyl)benzofuran-2-carboxamide]",173%,113.4%,0.6 nM
"O=C(NC[C@H]1CC[C@H](NCCOc2ccc(Cl)c(F)c2)CC1)c1cc2cc(Cl)ccc2o1 [Compound 27, trans-5-chloro-N-((4-((2-(4-chloro-3-fluorophenoxy)ethyl)amino)cyclohexyl)methyl)benzofuran-2-carboxamide]",126%,38.1%,< 1000 nM
"O=C(NC[C@H]1CC[C@H](NC(=O)COc2ccc(Cl)c(F)c2)CC1)Nc1ccc(Cl)cc1 [Compound 28, trans-2-(4-chloro-3-fluorophenoxy)-N-(4-((3-(4-chlorophenyl)ureido)methyl)cyclohexyl)acetamide]",68%,28.6%,3.1 nM
"O=C(Cc1ccc(Cl)cc1)NC[C@H]1CC[C@H](NC(=O)COc2ccc(Cl)c(F)c2)CC1 [Compound 29, trans-2-(4-chloro-3-fluorophenoxy)-N-(4-((2-(4-chlorophenyl)acetamido)methyl)cyclohexyl)acetamide]",70.9%,1.3%,12.5 nM
"O=C(COc1cccc(Cl)c1)NC[C@H]1CC[C@H](NC(=O)COc2ccc(Cl)c(F)c2)CC1 [Compound 30, trans-2-(4-chloro-3-fluorophenoxy)-N-(4-((2-(3-chlorophenoxy)acetamido)methyl)cyclohexyl)acetamide]",110%,0.4%,< 1000 nM
"CC(C)(C(=O)NC[C@H]1CC[C@H](NC(=O)COc2ccc(Cl)cc2)CC1)c1ccc(Cl)cc1 [Compound 31, trans-N-((4-(2-(4-chlorophenoxy)acetamido)cyclohexyl)methyl)-2-(4-chlorophenyl)-2-methylpropanamide]",120%,66.2%,< 1000 nM
"CC(C)(C(=O)NC[C@H]1CC[C@H](NC(=O)COc2ccc(Cl)c(F)c2)CC1)c1ccc(Cl)cc1 [Compound 32, trans-N-((4-(2-(4-chloro-3-fluorophenoxy)acetamido)cyclohexyl)methyl)-2-(4-chlorophenyl)-2-methylpropanamide]",162%,69.7%,> 1000 nM
"O=C(COc1ccc(Cl)cc1)N[C@H]1CC[C@H](CNC2CCc3cc(Cl)ccc3C2)CC1 (stereo partly drawn) [Compound 33, trans-N-(4-(((6-chloro-1,2,3,4-tetrahydronaphthalen-2-yl)amino)methyl)cyclohexyl)-2-(4-chlorophenoxy)acetamide]",599%,,> 1000 nM
"O=C(COc1ccc(Cl)cc1)N[C@H]1CC[C@H](NC(=O)C2COc3ccc(Cl)cc3N2)CC1 (stereo partly drawn) [Compound 34, trans-6-chloro-N-(4-(2-(4-chlorophenoxy)acetamido)cyclohexyl)-3,4-dihydro-2H-benzo[b][1,4]oxazine-3-carboxamide]",137%,105.2%,> 1000 nM
"CN1CC(C(=O)N[C@H]2CC[C@H](NC(=O)COc3ccc(Cl)cc3)CC2)Oc2ccc(Cl)cc21 (stereo partly drawn) [Compound 83, trans-6-chloro-N-(4-(2-(4-chlorophenoxy)acetamido)cyclohexyl)-4-methyl-3,4-dihydro-2H-benzo[b][1,4]oxazine-2-carboxamide]",148%,98.4%,19.3 nM
"O=C(Cc1ccc(Cl)cc1)NC[C@H]1CC[C@H](NC(=O)COc2ccc(Cl)cc2)CC1 [Compound 84, trans-2-(4-chlorophenoxy)-N-(4-((2-(4-chlorophenyl)acetamido)methyl)cyclohexyl)acetamide]",135%,35.0%,18.3 nM
"CN1C[C@H](C(=O)N[C@H]2CC[C@H](NC(=O)COc3ccc(Cl)cc3)CC2)Oc2ccc(Cl)cc21 [Compound 85, trans-(R)-6-chloro-N-(4-(2-(4-chlorophenoxy)acetamido)cyclohexyl)-4-methyl-3,4-dihydro-2H-benzo[b][1,4]oxazine-2-carboxamide]",124%,31.6%,44 nM
"CN1C[C@@H](C(=O)N[C@H]2CC[C@H](NC(=O)COc3ccc(Cl)cc3)CC2)Oc2ccc(Cl)cc21 [Compound 86, trans-(S)-6-chloro-N-(4-(2-(4-chlorophenoxy)acetamido)cyclohexyl)-4-methyl-3,4-dihydro-2H-benzo[b][1,4]oxazine-2-carboxamide]",125%,108.1%,12.3 nM
"CCN1CC(C(=O)N[C@H]2CC[C@H](NC(=O)COc3ccc(Cl)cc3)CC2)Oc2ccc(Cl)cc21 (stereo partly drawn) [Compound 87, trans-6-chloro-N-(4-(2-(4-chlorophenoxy)acetamido)cyclohexyl)-4-ethyl-3,4-dihydro-2H-benzo[b][1,4]oxazine-2-carboxamide]",147%,71.8%,90.2 nM
"CCN1C[C@H](C(=O)N[C@H]2CC[C@H](NC(=O)COc3ccc(Cl)cc3)CC2)Oc2ccc(Cl)cc21 [Compound 88, trans-(R)-6-chloro-N-(4-(2-(4-chlorophenoxy)acetamido)cyclohexyl)-4-ethyl-3,4-dihydro-2H-benzo[b][1,4]oxazine-2-carboxamide]",105%,28.6%,> 1000 nM
